One series deals with A or B influenza virus. The conditions noted are these: started during the first 48 hours after onset of symptoms; cited from earlier work.
For series [1], the system named is matrix metalloproteinase 9 (MMP-9) expression. Description: Quantikine Human MMP-9 (total) immunoassay, MMP-9 expression in influenza-A-infected Vero cells. In kind it is cell-based, African Green Monkey. The settings on record: influenza A-infected Vero cell supernatants, FIGS. 5 and 6. The procedure:
A Quantikine Human MMP-9 (total) Immunoassay Assay, R&D Systems, was used to quantify expression of MMP-9 in infected cells according to the manufacturer's protocol, which is incorporated herein by reference.
Vero cells were plated at 1e^5 cells/mL in a 100 uL volume in tissue culture treated 96 well plates. The following day cells were infected with virus at a multiplicity of infection of 10 and viral activity was measured. For testing compounds, cells were preincubated with compound 1 hr prior to infection. After overnight incubation, the cells were harvested, lysed, and supernatants were subjected to assay.
This MMP-9 assay employs the quantitative sandwich enzyme immunoassay technique. A monoclonal antibody specific for MMP-9 has been pre-coated onto a microplate. Standards and samples are pipetted into the wells, and MMP-9 is bound by the immobilized antibody. After washing away unbound substances, an enzyme-linked polyclonal antibody specific for MMP-9 is added to the wells. Following a wash to remove unbound antibody-enzyme reagent, a substrate solution is added to the wells and color develops in proportion to the amount of total MMP-9 (pro and/or active) bound in the initial step. The color development is stopped and the intensity of the color is measured.
Test formulations are shown in Example 5, Table 1. […]

The conditions of series [2]: animal studies, substantially high doses; cited from earlier work.
The conditions of series [3]: adults; cited from earlier work.

In the case of `CC(=O)N[C@H]1[C@H]([C@H](O)[C@H](O)CO)OC(C(=O)O)=C[C@@H]1N=C(N)N` [Relenza®, zanamivir], the “reduction of the duration of a typical seven day illness” value in the series with A or B influenza virus is “about one”.

Regarding `CCOC(=O)C1=C[C@@H](OC(CC)CC)[C@H](NC(C)=O)[C@@H](N)C1` [Formula T, oseltamivir phosphate], the “reduction of the duration of a typical seven day illness” value with A or B influenza virus is given as “about one”. Further, the “inhibition of expression of MMP-9” value in series [1] is recorded as “pronounced dose-dependent inhibition of expression of MMP-9”; in series [1] (listed as Tamiflu®), “inhibits expression of MMP-9”.

Turning to `CC(N)C12CC3CC(CC(C3)C1)C2` (stereo not drawn) [rimantadine], the teratogenicity and embryotoxicity entry in series [2] was “teratogenic and embryotoxic”.

In the case of `Cc1ncc(CO)c(CO)c1O` [Vitamin B6, Pyridoxine], the safe intake result in series [3] is recorded as “up to 200 mg per day”.

Values taken from patent publication US12702677B2 (priority 2008, dated 2026).
